The test concerns HCT116-C9. In words: Gene expression analysis using DNA microarray (GeneChip Hu6800). The conditions noted are these: HCT116-C9, 8 μM, 12 hours, compared with cells without drug; change of 1.8 times or more counted. It is filed as cell-based, human. How it is done:
All cells were cultured in RPMI-1640 medium supplemented with 10% of fetal bovine serum, 100 units/ml of penicillin and 100 μg/ml of streptomycin at 37° C. under 5% CO2.
E7070, or ER-35748 or ER-68487 represented by the structural formula shown below was added to the media of an E7070-susceptible strain HCT116-C9 and an E7070-resistant strain HCT116-C9-C1 at a concentration of 8 μM and the cells were cultured. Then, cells were recovered after 0, 3, 6 and 12 hours. Further, the cells were also cultured for 12 hours without adding the drug and recovered.
Total RNA was extracted from these cells and subjected to the subsequent analyses. The RNA extracted from the cells cultured for 12 hours with the drug and the RNA from extracted the cells cultured for 12 hours without the drug were used for the gene expression analysis using a DNA microarray described in Example 2. HCT116-C9 was a substrain isolated from HCT116 derived from human colon cancer (American Type Culture Collection, Manassas, Va., U.S.A.), and HCT116-C9-C1 was an E7070-resistant substrain obtained by culturing this HCT116-C9 in the presence of E7070 with gradually increasing the E7070 concentration.
Total RNA was extracted from the recovered cells by using TRIZOL Reagent (Life Technologies Oriental) according to the attached operation manual.
Each RNA obtained in Example 1 was dissolved in 100 μl of sterilized water treated with diethyl pyrocarbonate (DEPC) and further purified by using RNeasy Column (QIAGEN), and double-stranded cDNA was synthesized by using SuperScript Choice System (Life Technologies Oriental) and a T7-d(T)24 primer.
First, to 10 μg of RNA, 5 μM T7-d(T)24 primer, 1×First strand buffer, 10 mM DTT, 500 μM dNTP mix and 20 units/μl of SuperScript II Reverse Transcriptase were added and the mixture was allowed to react at 42° C. for 1 hour to synthesize single-stranded DNA. Subsequently, to the DNA, 1×Second strand buffer, 200 μM dNTP mix, 67 U/ml of DNA ligase, 270 U/ml of DNA polymerase I and 13 U/ml of RNase H were added and the mixture was allowed to react at 16° C. for 2 hours to synthesize double-stranded cDNA. Further, to the cDNA, 67 U/ml of T4 DNA polymerase I was added and the mixture was allowed to react at 16° C. for 5 minutes and then 10 μl of 0.5 M EDTA was added to terminate the reaction.
The obtained cDNA was purified with phenol/chloroform, and a labeling reaction with biotinylated UTP and CTP was carried out by using RNA Transcript Labeling Kit (Enzo Diagnostics) according to the attached operation manual. The reaction product was purified with Rneasy Column and heated in 200 mM Tris/acetate buffer (pH 8.1), 150 mM magnesium acetate, 50 mM potassium acetate at 94° C. for 35 minutes to obtain fragment cRNA.
The fragmented cRNA was hybridized with GeneChip Hu6800 (Affymetrix) in 100 mM MES, 1 M sodium salt, 20 mM EDTA and 0.01% Tween 20 at 45° C. for 16 hours. After the hybridization, the GeneChip was washed and stained according to the protocol EukGE-WS2 attached to Affymetrix Fluidics Station. For the staining, streptavidin-phycoerythrin and biotinylated goat anti-streptavidin antibody were used. The stained GeneChip was scanned by using HP Argon Ion Laser Confocal Scanner (Hewlett Packard) to measure its fluorescence intensity. The fluorescence was measured at 570 nm by using an excitation light at 488 nm.
The quantitative data analyses were all conducted by using GeneChip Software (Affymetrix). To quantify RNA, an average of “differences [(Perfect match hybridization signal)−(Mismatch signal)]” was obtained for each probe family.
E7070, or ER-35748 or ER-68487 was added to a medium for HCT116-C9 at a concentration of 8 μM and culture was performed. The results of analysis of RNA extracted from the cells at 12 hours by using GeneChip were compared with the results of RNA analysis for HCT116-C9 cells obtained in the same manner except for not adding the drug. […]

For the compound `N#Cc1ccc(S(=O)(=O)Nc2cccc3c(Cl)c[nH]c23)cc1` [ER-35748], the “expression levels of the genes listed in Table 1” value is on record as “increased” and the “expression levels of the genes listed in Table 2” value was “decreased”.

As to `N#Cc1ccc(S(=O)(=O)Nc2cccc3c(C#N)c[nH]c23)cc1` [ER-68487], the “expression levels of the genes listed in Table 1” value is listed as “increased” and the “expression levels of the genes listed in Table 2” value is listed as “decreased”.

These data come from patent US7445892B2, “Method of testing anticancer agent-sensitivity of tumor cells” (Eisai Co., Ltd., priority 2000, dated 2008).
